Experimental data taken from patent US8361968B2 (Takeda Pharmaceutical Company Limited, priority 2002, dated 2013).
Numbered stars: 1 amine (or outer) side, 2 acyl side, 3 side chain; on linkers, the order of the positions; unused ones are H or OH. Square brackets hold non-standard residues; d marks the D form. Peptide text beside a SMILES is read from it. * marks the point of attachment. X1 = O=C([C@H](Cc1ccc2ccccc2n1)N[*:1])[*:2]; X7 = CNC(=N)NCCCC[C@H](N[*:1])C(=O)[*:2]; 1Nal = N[C@@H](Cc1cccc2ccccc12)C(=O)O; Arg(Me) = CNC(=N)NCCC[C@H](N)C(=O)O; 2Pal = N[C@@H](Cc1ccccn1)C(=O)O; Cha = N[C@@H](CC1CCCCC1)C(=O)O; X2 = O=C(Cc1c[nH]c2ccccc12)*; azaGly = NNC(=O)O

Key:
hOT7T175 [1] = biological target: T1, hOT7T175 (Homo sapiens, UniProt Q969F8, L364H); assay: hOT7T175 receptor binding activity: binding inhibition of Cy-5-labeled metastin (40-54) on hOT7T175-expressed CHO cells; set-up: expressed in transfected cells; host or cells: CHO cells
T1 sequence (Q969F8 whole entry L364H): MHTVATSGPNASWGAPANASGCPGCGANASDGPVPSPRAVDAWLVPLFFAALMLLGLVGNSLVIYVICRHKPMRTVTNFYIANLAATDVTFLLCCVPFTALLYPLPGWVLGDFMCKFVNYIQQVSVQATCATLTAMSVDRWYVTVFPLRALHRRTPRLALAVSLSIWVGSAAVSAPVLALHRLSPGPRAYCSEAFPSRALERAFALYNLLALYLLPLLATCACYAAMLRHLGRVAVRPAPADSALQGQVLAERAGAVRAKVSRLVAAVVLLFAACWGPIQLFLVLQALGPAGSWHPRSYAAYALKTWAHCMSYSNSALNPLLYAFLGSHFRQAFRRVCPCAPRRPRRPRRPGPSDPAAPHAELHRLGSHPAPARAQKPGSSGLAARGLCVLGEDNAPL

hOT7T175 [2] = biological target: T1, hOT7T175; assay: Intracellular Ca ion level-increasing activity using FLIPR in hOT7T175/CHO; type: cell-based; set-up: expressed in transfected cells; host or cells: CHO/dhfr- cells, obtained from ATCC; settings: relative, Metastin (1-54) = 1

Structure (SMILES) | IC50 (hOT7T175 [1]) [nM] | Specific Activity (intracellular Ca ion level-increasing activity) (hOT7T175 [2])
CC[C@H](C)[C@H](NC(=O)[C@H](CC(N)=O)NC(=O)[C@H](N)Cc1ccc(O)cc1)C(=O)N[C@@H](CC(N)=O)C(=O)N[C@@H](CO)C(=O)N[C@@H](Cc1ccccc1)C(=O)NNC(=O)N[C@@H](CC(C)C)C(=O)N[C@@H](CCCNC(=N)NC)C(=O)N[C@@H](Cc1ccccc1)C(N)=O [Compound No. 233, D-Tyr-Asn-Ile-Asn-Ser-Phe-AzaGly-Leu-Arg(Me)-Phe-NH2] (H-[dY]NINSF[azaGly]L[Arg(Me)]F-NH2) | 23 | 1
CC(C)C[C@H](NC(=O)CNC(=O)[C@H](Cc1ccccc1)NC(=O)[C@H](CO)NC(=O)[C@H](CC(N)=O)NC(=O)[C@H](Cc1c[nH]c2ccccc12)NC(=O)[C@H](CC(N)=O)NC(=O)[C@@H](N)Cc1ccc(O)cc1)C(=O)N[C@@H](CCCNC(=N)N)C(=O)N[C@@H](Cc1ccc(Cl)cc1)C(N)=O [Compound No. 130] | 42 | 10
CC(C)C[C@H](NC(=O)CNC(=O)[C@H](Cc1cccc2ccccc12)NC(=O)[C@H](CO)NC(=O)[C@H](CC(N)=O)NC(=O)[C@H](Cc1c[nH]c2ccccc12)NC(=O)[C@H](CC(N)=O)NC(=O)[C@@H](N)Cc1ccc(O)cc1)C(=O)N[C@@H](CCCNC(=N)N)C(=O)N[C@@H](Cc1ccccc1)C(N)=O [Compound No. 151, Tyr-Asn-Trp-Asn-Ser-Nal(1)-Gly-Leu-Arg-Phe-NH2] (H-YNWNS[1Nal]GLRF-NH2; N-terminus assumed) | 300 | 1
CNC(=N)NCCCC[C@H](NC(=O)[C@H](CC(C)C)NC(=O)CNC(=O)[C@H](Cc1ccccc1)NC(=O)[C@H](CO)NC(=O)[C@H](CC(N)=O)NC(=O)[C@H](Cc1c[nH]c2ccccc12)NC(=O)[C@H](CC(N)=O)NC(=O)[C@@H](N)Cc1ccc(O)cc1)C(=O)N[C@@H](Cc1ccccc1)C(N)=O [Compound No. 312] (H-YNWNSFGL[X7]F-NH2) | 100 | 3
CNC(=N)NCCC[C@H](NC(=O)[C@H](CC(C)C)NC(=O)NNC(=O)[C@H](Cc1ccccc1)NC(=O)[C@H](CO)NC(=O)[C@H](CC(N)=O)NC(=O)[C@H](Cc1c[nH]c2ccccc12)NC(C)=O)C(=O)N[C@@H](Cc1ccccc1)C(N)=O [Compound No. 272, Acetyl-Trp-Asn-Ser-Phe-AzaGly-Leu-Arg(Me)-Phe-NH2] (Ac-WNSF[azaGly]L[Arg(Me)]F-NH2) | 540 | 2
CNC(=N)NCCC[C@H](NC(=O)[C@H](CC(C)C)NC(=O)NNC(=O)[C@H](Cc1ccccc1)NC(=O)[C@H](CO)NC(=O)[C@H](CC(N)=O)NC(=O)[C@H](Cc1ccc2ccccc2n1)NC(=O)[C@H](CC(N)=O)NC(=O)[C@H](N)Cc1ccc(O)cc1)C(=O)N[C@@H](Cc1ccccc1)C(N)=O [Compound No. 301, D-Tyr-Asn-Ala(2-Qui)-Asn-Ser-Phe-AzaGly-Leu-Arg(Me)-Phe-NH2] (H-[dY]N[X1]NSF[azaGly]L[Arg(Me)]F-NH2) | 15 | 1
CCNC(=N)NCCC[C@H](NC(=O)[C@H](CC(C)C)NC(=O)CNC(=O)[C@H](Cc1ccccc1)NC(=O)[C@H](CO)NC(=O)[C@H](CC(N)=O)NC(=O)[C@H](Cc1c[nH]c2ccccc12)NC(=O)[C@H](CC(N)=O)NC(=O)[C@@H](N)Cc1ccc(O)cc1)C(=O)N[C@@H](Cc1ccccc1)C(N)=O [Compound No. 220] | 330 | 5
CC(C)C[C@H](NC(=O)CNC(=O)[C@H](Cc1ccccc1)NC(=O)[C@H](CO)NC(=O)[C@H](CC(N)=O)NC(=O)[C@H](Cc1c[nH]c2ccccc12)NC(=O)[C@H](CC(N)=O)NC(=O)[C@@H](N)Cc1ccc(O)cc1)C(=O)N[C@@H](CCCNC(=N)N)C(=O)N[C@@H](Cc1cccc2ccccc12)C(N)=O [Compound No. 133] (H-YNWNSFGLR[1Nal]-NH2) | 330 | 3
CC(C)C[C@H](NC(=O)CNC(=O)[C@H](Cc1ccccc1)NC(=O)[C@H](CO)NC(=O)[C@H](CC(N)=O)NC(=O)[C@H](Cc1c[nH]c2ccccc12)NC(=O)[C@H](CC(N)=O)NC(=O)[C@@H](N)Cc1ccc(O)cc1)C(=O)N[C@@H](CCCNC(=N)N)C(=O)N[C@@H](Cc1ccc(O)cc1)C(N)=O [Compound No. 109] (H-YNWNSFGLRY-NH2) | 23 | 20
CC(C)C[C@H](NC(=O)CNC(=O)[C@H](Cc1ccccc1)NC(=O)[C@H](CO)NC(=O)[C@H](CC(N)=O)NC(=O)[C@H](Cc1c[nH]c2ccccc12)NC(=O)[C@H](CC(N)=O)NC(=O)[C@@H](N)Cc1ccc(O)cc1)C(=O)N[C@@H](CCCNC(=N)N)C(=O)N[C@@H](Cc1ccc(Cl)c(Cl)c1)C(N)=O [Compound No. 199] | 470 | 3
CNC(=N)NCCC[C@H](NC(=O)[C@H](CC(C)C)NC(=O)NNC(=O)[C@H](Cc1ccccc1)NC(=O)[C@H](CO)NC(=O)[C@H](CC(N)=O)NC(=O)Cc1c[nH]c2ccccc12)C(=O)N[C@@H](Cc1ccccc1)C(N)=O [Compound No. 266, Indol-3-acetyl-Asn-Ser-Phe-AzaGly-Leu-Arg(Me)-Phe-NH2] (X2-NSF[azaGly]L[Arg(Me)]F-NH2) | 230 | 2
CNC(=N)NCCC[C@H](NC(=O)[C@H](CC(C)C)NC(=O)CNC(=O)[C@H](Cc1ccccc1)NC(=O)[C@H](CO)NC(=O)[C@H](CC(N)=O)NC(=O)[C@@H](Cc1c[nH]c2ccccc12)NC(=O)[C@H](CC(N)=O)NC(=O)[C@H](N)Cc1ccc(O)cc1)C(=O)N[C@@H](Cc1ccccc1)C(N)=O [Compound No. 142, D-Tyr-Asn-D-Trp-Asn-Ser-Phe-Gly-Leu-Arg(Me)-Phe-NH2] | 26 | 2
CNC(=N)NCCC[C@H](NC(=O)[C@H](CC(C)C)NC(=O)CNC(=O)[C@H](Cc1ccccc1)NC(=O)[C@H](CO)NC(=O)[C@H](CC(N)=O)NC(=O)[C@H](CC1CCCCC1)NC(=O)[C@H](CC(N)=O)NC(=O)[C@H](N)Cc1ccc(O)cc1)C(=O)N[C@@H](Cc1ccccc1)C(N)=O [Compound No. 171, D-Tyr-Asn-Cha-Asn-Ser-Phe-Gly-Leu-Arg(Me)-Phe-NH2] (H-[dY]N[Cha]NSFGL[Arg(Me)]F-NH2) | 110 | 10
CNC(=N)NCCC[C@H](NC(=O)[C@H](CC(C)C)NC(=O)CNC(=O)[C@H](Cc1ccccn1)NC(=O)[C@H](CO)NC(=O)[C@H](CC(N)=O)NC(=O)[C@H](Cc1c[nH]c2ccccc12)NC(=O)[C@H](CC(N)=O)NC(=O)[C@H](N)Cc1ccc(O)cc1)C(=O)N[C@@H](Cc1ccccc1)C(N)=O [Compound No. 281, D-Tyr-Asn-Trp-Asn-Ser-Pya(2)-Gly-Leu-Arg(Me)-Phe-NH2] (H-[dY]NWNS[2Pal]GL[Arg(Me)]F-NH2) | 230 | ½
CC(C)C[C@H](NC(=O)CNC(=O)[C@H](CC1CCCCC1)NC(=O)[C@H](CO)NC(=O)[C@H](CC(N)=O)NC(=O)[C@H](Cc1c[nH]c2ccccc12)NC(=O)[C@H](CC(N)=O)NC(=O)[C@@H](N)Cc1ccc(O)cc1)C(=O)N[C@@H](CCCNC(=N)N)C(=O)N[C@@H](Cc1ccccc1)C(N)=O [Compound No. 156, Tyr-Asn-Trp-Asn-Ser-Cha-Gly-Leu-Arg-Phe-NH2] (H-YNWNS[Cha]GLRF-NH2) | 49 | 2
